Data: US20100056563A1, “NOVEL 1.8-NAPHTHYRIDINE COMPOUNDS” (priority 2007, published 2010)

biological target: T1, FLAG-tagged full length PHD2 (Homo sapiens, UniProt Q9GZT9); assay: HIF-PHD2 time resolved fluorescence inhibition assay (HIF-1α peptide hydroxylation, VHL complex detection); assay type: biochemical; details: 0.2 μM 2-oxoglutarate, 0.5 μM HIF-1α peptide, 2 hr at room temperature
T1 construct: FLAG-tagged full length PHD2; FLAG; made in house; host or cells: baculovirus-infected Sf9 cells
T1 sequence (Q9GZT9 whole entry): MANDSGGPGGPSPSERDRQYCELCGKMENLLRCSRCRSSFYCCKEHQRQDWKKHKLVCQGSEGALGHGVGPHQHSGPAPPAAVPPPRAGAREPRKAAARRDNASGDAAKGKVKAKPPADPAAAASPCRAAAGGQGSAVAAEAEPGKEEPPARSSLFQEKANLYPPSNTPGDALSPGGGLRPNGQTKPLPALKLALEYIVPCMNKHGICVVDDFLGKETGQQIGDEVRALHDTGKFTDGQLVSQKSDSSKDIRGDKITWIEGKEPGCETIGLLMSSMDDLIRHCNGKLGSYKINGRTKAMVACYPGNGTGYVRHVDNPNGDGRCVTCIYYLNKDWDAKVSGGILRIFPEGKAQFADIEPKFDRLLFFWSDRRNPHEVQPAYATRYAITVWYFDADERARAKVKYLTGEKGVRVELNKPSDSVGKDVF
Description: To each well of a 96-well plate was added […] of test compound in DMSO and 20 μl of assay buffer (50 mM Tris pH 7.4/0.01% Tween-20/0.1 mg/ml bovine serum albumin/10 μM ferrous sulfate/1 mM sodium ascorbate/20 μg/ml catalase) containing 0.15 μg/ml FLAG-tagged full length PHD2 expressed in and purified from baculovirus-infected Sf9 cells. After a […] preincubation at room temperature, the enzymatic reactions were initiated by the addition of 4 μL of substrates (final concentrations of 0.2 μM 2-oxoglutarate and 0.5 μM HIF-1α peptide biotinyl-DLDLEMLAPYIPMDDDFQL). After 2 hr at room temperature, the reactions were terminated and signals were developed by the addition of a 25 μL quench/detection mix to a final concentration of 1 mM ortho-phenanthroline, 0.1 mM EDTA, 0.5 nM anti-(His)6 LANCE reagent (Perkin-Elmer Life Sciences), 100 nM AF647-labeled streptavidin (Invitrogen), and 2 μg/ml (His)6-VHL complex (S. Tan (2001) Protein Expr. Purif. 21, 224-234). The ratio of time resolved fluorescence signals at 665 and 620 nm was determined, and percent inhibition was calculated relative to an uninhibited control sample run in parallel.

| SMILES | IC50 [nM] |
| --- | --- |
| O=C(O)CNC(=O)c1c(O)c2cccnc2n(Cc2ccc(Br)cc2)c1=O [Example 3, N-{[1-(4-Bromobenzyl)-4-hydroxy-2-oxo-1,2-dihydro-1,8-naphthyridin-3-yl]carbonyl}glycine] | 1.9 |
| O=C(O)CNC(=O)c1c(O)c2cccnc2n(Cc2nc3cc(Cl)ccc3s2)c1=O [Example 24, N-({1-[(5-Chloro-1,3-benzothiazol-2-yl)methyl]-4-hydroxy-2-oxo-1,2-dihydro-1,8-naphthyridin-3-yl}carbonyl)glycine] | 1.1 |
| C[C@H](NC(=O)c1c(O)c2cccnc2n(Cc2ccc(C(F)(F)F)cc2)c1=O)C(=O)O [Example 11, N-({4-Hydroxy-2-oxo-1-[4-(trifluoromethyl)benzyl]-1,2-dihydro-1,8-naphthyridin-3-yl}carbonyl)-L-alanine] | 6 |
| O=C(O)C[C@H](NC(=O)c1c(O)c2cccnc2n(Cc2ccc(C(F)(F)F)cc2)c1=O)C(=O)O [Example 15, N-({1-[4-(trifluoromethyl)benzyl]-4-hydroxy-2-oxo-1,2-dihydro-1,8-naphthyridin-3-yl}carbonyl)-L-aspartic acid] | 25 |
| O=C(O)CNC(=O)c1c(O)c2cc(I)cnc2n(Cc2ccc(C(F)(F)F)cc2)c1=O [Example 9, N-({4-Hydroxy-6-iodo-2-oxo-1-[4-(trifluoromethyl)benzyl]-1,2-dihydro-1,8-naphthyridin-3-yl}carbonyl)glycine] | 1.3 |
| C#CCn1c(=O)c(C(=O)NCC(=O)O)c(O)c2cccnc21 [Example 18, N-[(4-Hydroxy-2-oxo-1-prop-2-yn-1-yl-1,2-dihydro-1,8-naphthyridin-3-yl)carbonyl]glycine] | 21 |
| NC(=O)c1ccc(Cn2c(=O)c(C(=O)NCC(=O)O)c(O)c3cccnc32)cc1 [Example 13, N-({1-[4-(Aminocarbonyl)benzyl]-4-hydroxy-2-oxo-1,2-dihydro-1,8-naphthyridin-3-yl}carbonyl)glycine] | 1.2 |
| COc1ccc2c(O)c(C(=O)NCC(=O)O)c(=O)n(Cc3ccc(C(F)(F)F)cc3)c2n1 [Example 7, N-({4-Hydroxy-7-methoxy-2-oxo-1-[4-(trifluoromethyl)benzyl]-1,2-dihydro-1,8-naphthyridin-3-yl}carbonyl)glycine] | 1.5 |
